Experiment in all cases: inhibition of tumour cell growth, NCI panel, 48 h
Test [1] deals with A498 renal.
Test [2] deals with HOP-92 NSCLC.
Test [3] deals with A549 NSCLC.
Test [4] concerns SK-MEL-5 melanoma.
The test system of test [5] is NCI-H23 lung.
Test [6] relates to MDA-MB-435.
Test [7] concerns MALME-3M melanoma.
Test [8] relates to SNB-75 CNS.
For test [9], the system named is K-562 leukemia.
In test [10] the test system is HS 578T breast.

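Five compound concentrations were applied to cells in 96-well plates for 48 hours; endpoints were derived by simple linear interpolation of the resulting dose-response curve. Abbreviation: GI50, concentration required for 50% inhibition of growth. TGI marks complete inhibition of growth.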

The source of these data is PubChem BioAssay (NCI).

With `N=C(N)c1ccc2oc3ccc(C(=N)N)cc3c(=O)c2c1`, the TGI in test [1], in [2], in test [3], in [4], in test [5] and in test [6] was more than 100 µM throughout. In addition, the TGI in [7], in [8] and in test [9] was more than 100 µM each time.

`COc1cc2c(c(OC)c1OC)-c1cc(I)c(O)cc1[C@@H](NC(C)=O)CC2`: the GI50 was 0.0459 µM in test [1]; 0.0639 µM in test [2]; 0.0695 µM in [3]; 0.0358 µM in test [4]; 0.046 µM in [5]; more than 100 µM in test [7]. In addition, the GI50 is 0.0332 µM in test [8], 0.0324 µM in test [9] and 0.029 µM in [10]. Further, the TGI in test [1] is 5.5 µM; in test [2] it was 10.9 µM; in test [3], more than 40.1 µM; in [4] it was 0.244 µM; in [5], more than 100 µM; in [7], more than 100 µM. The TGI in [8] was more than 92.5 µM; in [9], more than 100 µM.

Take `Cc1cc(N2CCC(N3CCCC3)CC2)nc(/N=C(\N)Nc2ccc(Cl)c(Cl)c2)n1`: the GI50 in test [1] was 1.94 µM; in test [3], 1.78 µM; in test [4], 1.65 µM; in [5], 2.12 µM; in [6] it was 1.74 µM; in [7], 2 µM. For the same compound, the results for the GI50 in test [8], in [9] and in [10] were 1.58 µM, 2.58 µM and 1.91 µM, respectively. For the same compound, the TGI in test [1] came to 3.94 µM; in test [3], 3.42 µM; in [4] it was 3.02 µM; in [5], 6.61 µM; in test [6], 3.3 µM; in [7] it was 3.82 µM. Also, the results for the TGI in [8], in test [9] and in [10] were 3.12 µM, more than 100 µM and 5.06 µM, respectively.

As to `CC1(C)CC(O)CC(C)(C)N1O`, the TGI in test [1], in [3], in [4], in test [5], in [6] and in [7] was more than 100 µM each time. Also, the TGI in test [8], in test [9] and in [10] was more than 100 µM each time. In addition, the GI50 in test [5] and in test [10] was more than 100 µM each time.

`Cn1cc(-c2cc(-c3cn(C)c4ccccc34)[nH]n2)c2ccccc21`: the GI50 in [1] is 19.6 µM; in [2], 2.06 µM; in test [3] it was 16.3 µM; in [4], 13.1 µM; in [5], 22 µM; in test [7], 93.1 µM. Also, the GI50 was 18.4 µM in test [8], 42.1 µM in test [9] and 18.5 µM in [10]. The TGI is 90.3 µM in test [1]; 9.57 µM in test [2]; more than 100 µM in test [3]; more than 100 µM in test [4]; more than 100 µM in [5]; more than 100 µM in test [7]. Moreover, the TGI is 69.9 µM in test [8], more than 100 µM in [9] and more than 100 µM in [10].

`COc1cccc(/C=C2\N=C(c3ccccc3)OC2=O)c1`: the TGI in test [2] was more than 100 µM; in test [3] it was more than 100 µM; in test [4] it was more than 100 µM; in [5], more than 100 µM; in test [6], more than 100 µM; in [8], 77.1 µM. Further, the TGI in test [9] and in [10] was more than 100 µM throughout.

Turning to `Clc1ccc(C=Nc2ccc(-c3nc4ccccc4[nH]3)cc2)cc1`, the GI50 was 17.4 µM in [1]; 89.1 µM in test [2]; more than 100 µM in test [3]; 45 µM in [4]; more than 100 µM in test [5]; more than 100 µM in [6]. Further, the GI50 was more than 100 µM in test [7], 77.7 µM in [8] and 39 µM in [10]. The TGI in [1], in [2], in [3], in [4], in test [5] and in test [6] was more than 100 µM each time. In addition, the TGI in [7], in test [8] and in [10] was more than 100 µM in each case.

For the compound `CCN(CC)CCOC(COc1cc(C)cc(C)c1)COc1cc(C)cc(C)c1`, the GI50 in [3] was 4.56 µM; in test [4], 1.75 µM; in test [5], 2.36 µM; in [6], 1.64 µM; in test [7] it was 1.88 µM; in test [8] it was 5.75 µM. Further, the GI50 in [10] was 4.22 µM. The TGI in test [3] was determined as 16.9 µM; in [4] it was 3.19 µM; in test [5] it was 14.7 µM; in test [6] it was 3.63 µM; in [7], 3.86 µM; in test [8], 20.8 µM. The same compound displayed a TGI in test [10] of 16.7 µM.

For the compound `C=CCC(N[C@@H](CO)c1ccccc1)c1ccc2ccccc2n1` (some centres not stated), the GI50 in test [1] is 93.2 µM; in test [3], more than 100 µM; in [5], more than 100 µM; in test [6] it was more than 100 µM; in test [7] it was 88.6 µM; in test [8], 51.2 µM. The figures for the GI50 in test [9] and in [10] were 36.2 µM and more than 100 µM, respectively. For the same compound, the TGI in [1], in [3], in [5], in [6], in [7] and in test [8] was more than 100 µM each time. Further, the TGI in test [9] and in test [10] was more than 100 µM throughout.

As for `O=C(/C=C/c1ccccc1)c1ccc(Cl)cc1Cl`, the TGI in test [1] is 50.6 µM; in test [2], 69.3 µM; in [3], 60.3 µM; in test [4], 31.4 µM; in test [5], 75.8 µM; in [7], 46.1 µM. Also, the TGI in [8] worked out at 92.7 µM; in test [9], 30.1 µM.
